Measurements: publication PMC11024192, “Dissolution and antioxidant potential of apigenin self nanoemulsifying drug delivery system (SNEDDS) for oral delivery” (Scientific Reports, 2024)
Where “and” joins values, the source holds several entries; their conditions need not be identical. Equal entries are not always repeated.

How the values were obtained:
Caco-2 cells = test: Intracellular (cellular) antioxidant activity (CAA) assay, DCFH-DA/AAPH; type: cell-based; details: apigenin 7 μg/mL final, ascorbic acid 0.01%w/v, mean ± SD; for AUC (area under the DCF fluorescence response curve over time): 1 h incubation, 600 µM AAPH; for CAA unit (%reduction): vs non-antioxidant treated control
From the text: The quantitative cellular antioxidant activity (CAA) assay is a useful method employed for determining the bioavailability of food antioxidants because it can account for several additional factors, such as cellular uptake and metabolism. The CAA assay uses a fluorescent probe (DCFH-DA) to monitor the inhibition of peroxyl radical-induced oxidation inside the cell. The ester form (DCFH-DA) is nonionic and nonpolar and can be transported across the cell membrane. Inside the cell, DCFH-DA is deacetylated by endogenous cellular esterase and left in its oxidizable DCFH form. Once the free radical generator AAPH is added to the system, peroxyl radicals begin to form. The addition of antioxidants that can enter the cell can compete with and quench the radicals, preventing DCFH from being oxidized to form DCF (fluorescent). The CAA unit takes into account the relative areas under the curves of the samples compared to the control. Caco-2 cells, intestinal barrier models, are an appropriate model for assessing the antioxidant activity, especially for the phenolic compound[21] being used in this study.
The quantitative CAA of SNEDDS formulations GTP2575 and GTP3070 was evaluated in Caco-2 cells modified from the study of Kellett et al.[21]. Caco-2 cells were cultured in advanced DMEM supplemented with 10% endotoxin-free, heat-inactivated FBS, 1% L-glutamine, 1% penicillin (10,000 U/mL), and 1% streptomycin (10,000 μg/mL). Each test sample of SNEDDS was prepared by diluting with serum-free culture media to obtain an equivalent concentration of apigenin (14 µg/mL). The working solution (25 μM DCFH-DA in serum-free culture media) was prepared from a 12.5 mM DCFH-DA stock solution in MeOH. A 600 μM AAPH solution was prepared from a 60 mM AAPH stock solution in HBSS before experimental use. After Caco-2 cells reached confluence in a T-25 culture flask, the cells were washed twice with sterile PBS (pH 7.4) and dissociated from the surface using trypsin–EDTA. The cells were seeded in 96-well, black, flat-bottom tissue culture-treated dishes (Corning Costar, ME, USA). A density of 60,000 cells in 100 µL of culture media was added to each well and incubated until they reached confluency (24 h). The growth medium was removed after confluence was achieved, and the cells were then washed with PBS to remove any nonadherent and dead cells.
At the time of the experiment, 50 µL of 25 μM DCFH-DA working solution was added to each well, followed by 50 µL of a test sample. As a result, the final concentration of apigenin of 7 μg/mL in each well was obtained. As a control, 50 µL of DCFH-DA working solution and serum-free culture media (no sample included) were utilized. Once the DCFH-DA and test samples were added, the cells were placed in the incubator for 1 h at 37 °C. After 1 h, the cells were washed with PBS 3 times to ensure that any antioxidant effect observed later in the assay was due only to the compounds internalized by the cells. […] The cells were then immediately placed in a BMG CLARIOstar (BMG LABTECH, NC, USA), where real-time fluorescence was measured initially and every five minutes for 1 h (a total of 13 readings were taken). The fluorescence was measured at an excitation wavelength of 485 nm and an emission wavelength of 538 nm. The antioxidant activity of test samples was quantified by evaluating the percent reduction in fluorescence. […] The percent reduction, or the CAA unit, was calculated using Eq. (3). The samples were evaluated in triplicate and reported as the mean ± SD. […]

[1] = In vitro dissolution profile (apparatus type II, HPMC capsules) and release kinetics fitting; type: physicochemical; details: 37 °C, 100 rpm, 5 mg apigenin in HPMC capsule
Method: The apigenin-loaded SNEDDS formulations GTP2575 and GTP3070 were selected for evaluating the in vitro dissolution because both formulations offered nearly 100% transmittance, an appropriate size with a narrow size distribution, a quick self-emulsification time, and great drug loading and encapsulation efficiency. […] Therefore, formulations GTP2575 and GTP3070 were preferred for in vitro dissolution study.
Dissolution was performed by a dissolution apparatus type II (a paddle) (Vision G2 Elite 8, Hanson, CA, USA). The SNEDDS formulations GTP2575 and GTP3070 containing 5 mg of apigenin were added to HPMC capsules number 00. An equivalent 5 mg of apigenin coarse powder added to HPMC capsules using lactose monohydrate as the filler was the control. Each capsule was placed inside a sinker loaded with 900 mL of dissolution media (buffer solutions pH 1.2, 4.5, and 6.8) at 37.0 ± 0.5 °C with a rotating speed of 100 rpm. During the study, 5 mL of dissolution medium was removed at predetermined time intervals (10, 15, 20, 30, 45, 60, 90, and 120 min), and 5 mL of fresh buffer solution was replaced. The amount of apigenin dissolved in the dissolution media was determined by HPLC. The dissolution experiment was carried out in triplicate. The dissolution profile was plotted with the percent apigenin dissolved on the y-axis and time on the x-axis. The dissolution profiles of GTP2575, GTP3070, and the coarse powder in the dissolution media buffer pH 1.2, 4.5, and 6.8 were compared. The dissolution results of the SNEDDS formulations GTP2575 and GTP3070 in pH 1.2 buffer solution were fitted by determining the R^2 with various kinetic models such as zero-order (a constant release rate independent of the drug remaining), first-order (an exponential decay of the drug remaining), Higuchi (matrix systems where drug release is controlled by diffusion), Hixon–Crowell (release based on the change in the cube root of the drug remaining), and Korsmeyer–Peppas (an extension of the […] model that incorporates a release exponent). […]

[2] = Solubility of apigenin in oils, surfactants and cosurfactants (excess drug, shaking water bath, HPLC); type: physicochemical; details: 48 h, mean ± SD, n = 3
From the text: To formulate the SNEDDS, the selection of suitable oils, surfactants, and cosurfactants is important to enhance the solubility of actives and the loading efficiency. The components used in SNEDDS should maximize drug solubility and have good miscibility with each other to obtain a stable formulation. Therefore, the solubility of apigenin was firstly determined in the oils (Gelucire 44/14, Myritol 318, sunflower oil, and corn oil), surfactants (PEG-40 hydrogenated castor oil, Tween 20, Tween 80, Span 20, and Span 80), and cosurfactants (PEG 400 and Transcutol HP). Briefly, an excess amount of apigenin was weighed into 0.5 g of each excipient. The obtained mixtures were mixed using a vortex mixer and kept in a shaking water bath at 100 rpm and 37 ± 2 °C for 48 h. After equilibrium was achieved, the equilibrated sample was centrifuged at 8000 rpm for 20 min. The excess undissolved apigenin was discarded, and the supernatant was collected. The concentration of apigenin was analyzed by the high-performance liquid chromatography (HPLC). The experiments were performed in triplicate. The excipient in which apigenin was the most soluble was selected to form the pseudoternary phase diagram. The amount of apigenin was quantified by a validated reversed-phase HPLC (RP-HPLC) equipped with a UV/VIS detector (SHIMADZU Series 20AD, Japan). Apigenin was separated on a C18 column (Promosil C18, 4.5 × 250 mm, 5 µm) using methanol, acetonitrile, acetic acid, orthophosphoric acid, and water at a ratio of 40:20:0.05:0.05:40 by volume as the mobile phase at a flow rate of 0.6 mL/min with a detection wavelength of 352 nm. The column temperature was set to 30 °C. The standard curve of apigenin was linear in the concentration range of 0.05–40 µg/mL. Good linearity with a coefficient of determination (R^2) > 0.999 was achieved. The relative standard deviation (%RSD) of intraday and interday precision of the assay method for apigenin was below 6%, and the accuracy was within the range of 95–105%. The limit of quantification and limit of detection were 0.64 and 0.21 µg/mL, respectively.

[3] = set-up: method as in PMID 34084146; details: cited from earlier work

| percent apigenin dissolved at 120 min ([1]; buffer pH 1.2, 900 mL) [%] | percent apigenin dissolved at 120 min ([1]; buffer pH 4.5, 900 mL) [%] | percent apigenin dissolved at 120 min ([1]; buffer pH 6.8, 900 mL) [%] | Solubility at 37 °C ([2]; in Myritol 318 (oil)) [mg/g] | Solubility at 37 °C ([2]; in PEG 400 (cosurfactant)) [mg/g] | Solubility at 37 °C ([2]; in PEG-40 hydrogenated castor oil (surfactant)) [mg/g] | Solubility at 37 °C ([2]; in Span 20 (surfactant)) [mg/g] | Solubility at 37 °C ([2]; in Span 80 (surfactant)) [mg/g] | Solubility at 37 °C ([2]; in Transcutol HP (cosurfactant)) [mg/g] | Solubility at 37 °C ([2]; in Tween 20 (surfactant)) [mg/g] | Solubility at 37 °C ([2]; in Tween 80 (surfactant)) [mg/g] | Solubility at 37 °C ([2]; in corn oil) [mg/g] | Solubility at 37 °C ([2]; in sunflower oil) [mg/g] | Structure (SMILES) | AUC (area under the DCF fluorescence response curve over time) (Caco-2 cells; n = 3) | CAA unit (%reduction) (Caco-2 cells; n = 3, listed as Apigenin coarse powder) [%] | CAA unit (%reduction) (Caco-2 cells; n = 3, listed as apigenin coarse powder) | Solubility at 37 °C ([2]; in Gelucire 44/14 (oil)) | Biopharmaceutical classification system (BCS) class [3] | Solubility in water [3] | CAA unit (%reduction) (Caco-2 cells; n = 3) [%] |
| --- | --- | --- | --- | --- | --- | --- | --- | --- | --- | --- | --- | --- | --- | --- | --- | --- | --- | --- | --- | --- |
| 5 | 2 | 2 | 0.0003 ± 0.0000 | 27.6349 ± 0.9833 | 11.3645 ± 0.2659 | 0.0013 ± 0.0000 | 0.0007 ± 0.0001 | 20.9544 ± 0.8715 | 20.9996 ± 1.1273 | 22.5921 ± 0.0290 | 0.0003 ± 0.0000 | 0.0004 ± 0.0000 | O=c1cc(-c2ccc(O)cc2)oc2cc(O)cc(O)c12 [apigenin] | 9,951,772 ± 1,061,408 | 12.70 ± 5.14 | 12.70% and 12.70 ± 5.14% | 7.77 ± 0.63 mg/g and 7.7686 ± 0.6332 mg/g | Class II | insoluble |  |
|  |  |  |  |  |  |  |  |  |  |  |  |  | O=C1O[C@H]([C@@H](O)CO)C(O)=C1O [ascorbic acid] | 8,959,896 ± 1,441,639 |  |  |  |  |  | 21.61 ± 7.41 |
